Measurements from ChEMBL document CHEMBL3045802, “Synthesis and in vitro antitumor activity of new quinoline, pyrimido[4,5-b]quinoline, [1,2,3]triazino[4,5-b]quinoline, and [1,2,4]triazolo[2,3:3,4]pyrimido[6,5-b]quinoline analogs” (2013).

Key:
Format in all cases: functional
[1] = test system: CCRF-CEM; experiment: Cytotoxicity against Homo sapiens (human) CCRF-CEM cells assessed as growth inhibition at 10 uM after 48 hr by coulter counter analysis; settings: read-out: GI
[2] = Cytotoxicity against Homo sapiens (human) NCI-ADR-RES cells assessed as growth inhibition at 10 uM after 48 hr by coulter counter analysis; settings: read-out: GI
[3] = test system: SW-620; experiment: Cytotoxicity against Homo sapiens (human) SW620 cells assessed as growth inhibition at 10 uM after 48 hr by coulter counter analysis; settings: SW-620, 48 h, read-out: GI
[4] = test system: K562; experiment: Cytotoxicity against Homo sapiens (human) K562 cells assessed as growth inhibition at 10 uM after 48 hr by coulter counter analysis; settings: K562, 48 h, read-out: GI
[5] = test system: CAKI-1; experiment: Cytotoxicity against Homo sapiens (human) Caki1 cells assessed as growth inhibition at 10 uM after 48 hr by coulter counter analysis; settings: CAKI-1, 48 h, read-out: GI
[6] = test system: UO-31; experiment: Cytotoxicity against Homo sapiens (human) UO31 cells assessed as growth inhibition at 10 uM after 48 hr by coulter counter analysis; settings: UO-31, 48 h, read-out: GI
[7] = test system: NCI-H522; experiment: Cytotoxicity against Homo sapiens (human) NCI-H522 cells assessed as growth inhibition at 10 uM after 48 hr by coulter counter analysis; settings: NCI-H522, 48 h, read-out: GI
[8] = test system: HCT-116; experiment: Cytotoxicity against Homo sapiens (human) HCT116 cells assessed as growth inhibition at 10 uM after 48 hr by coulter counter analysis; settings: HCT-116, 48 h, read-out: GI
[9] = test system: Hs-578T; experiment: Cytotoxicity against Homo sapiens (human) Hs578T cells assessed as growth inhibition at 10 uM after 48 hr by coulter counter analysis; settings: read-out: GI
[10] = test system: OVCAR-4; experiment: Cytotoxicity against Homo sapiens (human) OVCAR4 cells assessed as growth inhibition at 10 uM after 48 hr by coulter counter analysis; settings: OVCAR-4, 48 h, read-out: GI
[11] = test system: NCI-H460; experiment: Cytotoxicity against Homo sapiens (human) NCI-H460 cells assessed as growth inhibition at 10 uM after 48 hr by coulter counter analysis; settings: NCI-H460, 48 h, read-out: GI
[12] = test system: UACC-62; experiment: Cytotoxicity against Homo sapiens (human) UACC62 cells assessed as growth inhibition at 10 uM after 48 hr by coulter counter analysis; settings: UACC-62, 48 h, read-out: GI
[13] = test system: MDA-MB-231; experiment: Cytotoxicity against Homo sapiens (human) MDA-MB-231 cells assessed as growth inhibition at 10 uM after 48 hr by coulter counter analysis; settings: MDA-MB-231, 48 h, read-out: GI
[14] = test system: UACC-257; experiment: Cytotoxicity against Homo sapiens (human) UACC257 cells assessed as growth inhibition at 10 uM after 48 hr by coulter counter analysis; settings: UACC-257, 48 h, read-out: GI
[15] = test system: SR; experiment: Cytotoxicity against Homo sapiens (human) SR cells assessed as growth inhibition at 10 uM after 48 hr by coulter counter analysis; settings: read-out: GI
[16] = test system: LOX IMVI; experiment: Cytotoxicity against Homo sapiens (human) LOXIMVI cells assessed as growth inhibition at 10 uM after 48 hr by coulter counter analysis; settings: read-out: GI
[17] = test system: Malme-3M; experiment: Cytotoxicity against Homo sapiens (human) MALME-3M cells assessed as growth inhibition at 10 uM after 48 hr by coulter counter analysis; settings: read-out: GI
[18] = test system: KM12; experiment: Cytotoxicity against Homo sapiens (human) KM12 cells assessed as growth inhibition at 10 uM after 48 hr by coulter counter analysis; settings: KM12, 48 h, read-out: GI
[19] = test system: OVCAR-8; experiment: Cytotoxicity against Homo sapiens (human) OVCAR8 cells assessed as growth inhibition at 10 uM after 48 hr by coulter counter analysis; settings: OVCAR-8, 48 h, read-out: GI
[20] = test system: RXF 393; experiment: Cytotoxicity against Homo sapiens (human) RXF393 cells assessed as growth inhibition at 10 uM after 48 hr by coulter counter analysis; settings: RXF 393, 48 h, read-out: GI
[21] = test system: SK-MEL-28; experiment: Cytotoxicity against Homo sapiens (human) SK-MEL-28 cells assessed as growth inhibition at 10 uM after 48 hr by coulter counter analysis; settings: SK-MEL-28, 48 h, read-out: GI
[22] = test system: HOP-62; experiment: Cytotoxicity against Homo sapiens (human) HOP62 cells assessed as growth inhibition at 10 uM after 48 hr by coulter counter analysis; settings: HOP-62, 48 h, read-out: GI
[23] = test system: A549; experiment: Cytotoxicity against Homo sapiens (human) A549 cells assessed as growth inhibition at 10 uM after 48 hr by coulter counter analysis; settings: A549, 48 h, read-out: GI
[24] = test system: SNB-19; experiment: Cytotoxicity against Homo sapiens (human) SNB19 cells assessed as growth inhibition at 10 uM after 48 hr by coulter counter analysis; settings: SNB-19, 48 h, read-out: GI

SMILES	inhibition of growth at 10 µM [1]	inhibition of growth at 10 µM [2]	inhibition of growth at 10 µM [3]	inhibition of growth at 10 µM [4]	inhibition of growth at 10 µM [5]	inhibition of growth at 10 µM [6]	inhibition of growth at 10 µM [7]	inhibition of growth at 10 µM [8]	inhibition of growth at 10 µM [9]	inhibition of growth at 10 µM [10]	inhibition of growth at 10 µM [11]	inhibition of growth at 10 µM [12]	inhibition of growth at 10 µM [13]	inhibition of growth at 10 µM [14]	inhibition of growth at 10 µM [15]	inhibition of growth at 10 µM [16]	inhibition of growth at 10 µM [17]	inhibition of growth at 10 µM [18]	inhibition of growth at 10 µM [19]	inhibition of growth at 10 µM [20]	also measured
COc1ccc(C2C3=C(CCCC3)Nc3nn[nH]c(=O)c32)cc1OC (configuration not stated)	< 10%	< 10%	< 10%	< 10%	23.4%	48.6%	< 10%	< 10%	< 10%	< 10%	< 10%	14.3%	< 10%	< 10%	< 10%	< 10%	< 10%	< 10%	< 10%	14.4%	inhibition of growth at 10 µM [21]: < 10%; inhibition of growth at 10 µM [22]: 15.7%; inhibition of growth at 10 µM [23]: < 10%; inhibition of growth at 10 µM [24]: 10.7%
COc1ccc(C2C3=C(CCCC3)Nc3[nH]c(=S)nc(NC(N)=S)c32)cc1OC (configuration not stated)	< 10%	11.7%	< 10%	17.6%	10%	43.5%	43.4%	< 10%	17.7%	< 10%	< 10%	< 10%	17.4%	< 10%	40.6%	16.1%	10.9%	21.3%	< 10%	14.3%	inhibition of growth at 10 µM [21]: < 10%; inhibition of growth at 10 µM [22]: 25.4%; inhibition of growth at 10 µM [23]: < 10%; inhibition of growth at 10 µM [24]: 10.4%
COc1ccc(C2C3=C(CCCC3)Nc3nc(CC#N)[nH]c(=O)c32)cc1OC (configuration not stated)	< 10%	< 10%	< 10%	< 10%	< 10%	26.9%	< 10%	< 10%	< 10%	< 10%	< 10%	< 10%	< 10%	< 10%	< 10%	< 10%	< 10%	< 10%	< 10%	< 10%	inhibition of growth at 10 µM [21]: < 10%; inhibition of growth at 10 µM [22]: < 10%; inhibition of growth at 10 µM [23]: < 10%; inhibition of growth at 10 µM [24]: < 10%
